Experimental data: patent publication US20230067910A1, “NOVEL COMPOUNDS FOR THE DIAGNOSIS, TREATMENT AND PREVENTION OF DISEASES ASSOCIATED WITH THE AGGREGATION OF ALPHA-SYNUCLEIN” (MODAG GMBH, priority 2019, published 2023)
Read-outs that look alike come from different tables or passages of the source.

How the values were obtained:
[1] = tested on: H4 cells overexpressing full-length alpha-synuclein; assay: Cellular model of aggregated alpha-synuclein-dependent toxicity, full-length alpha-synuclein H4 cells; type: cell-based; conditions: 10 μM compound, 100 μM FeCl3, 0.75% DMSO, 48 h; for inhibition at 10 µM: read-out: Change in fraction of condensed nuclei (rel. to DMSO control) [%]
Method: (§1) To identify potential therapeutically useful effects, compounds were tested in two cellular models of aggregated alpha-synuclein-dependent toxicity in H4 cells. These cellular models allow for the inducible overexpression of alpha-synuclein hemi-Venus fusion constructs (V1S+SV2) or full-length alpha-synuclein (the model is described in detail in: Bartels M, Weckbecker D, Kuhn P H, Ryazanov S, Leonov A, Griesinger C, Lichtenthaler S F, Bötzel K, Giese A: Iron-mediated aggregation and toxicity in a novel neuronal cell culture model with inducible alpha-synuclein expression, Sci. Rep. 2019 Jun. 24; 9(1):9100). Moreover, addition of DMSO and FeCl3 promotes the aggregation of alpha-synuclein which is associated with an increase in cytotoxicity. The cell culture assay uses these effects by determining the change in the number of cells and the change in the percentage of condensed nuclei, which is indicative of apoptosis, in order to obtain information on which compounds show the most promising effects and thus might be therapeutically useful.
(§2) In these experiments, cells were incubated with 100 μM FeCl3 and 0.75% DMSO in the presence of 10 μM anle138c as a positive control, compounds 1 to 19 (10 μM), or DMSO as a negative control. After 48 h, the cells were imaged with an OPERA high-throughput imaging system and analyzed using Acapella software (Perkin Elmer). […] A reduction in the fraction of condensed nuclei (in the absence of a strong reduction in cell number) is indicative of a beneficial therapeutic effect.

[2] = biological target: T1, aggregated alpha-synuclein (Homo sapiens, UniProt P37840); assay: Saturation binding assay, protocol 2a, alpha-synuclein fibrils; conditions: for Selectivity versus Abeta and tau46 fibrils: saturation binding to alpha-synuclein vs Abeta and tau46 fibrils
T1 construct: made in house; host or cells: E. coli
Method: Alpha-synuclein and tau46 were purified from E. coli according to established protocols (Nuscher B, et al., J. Biol. Chem., 2004; 279(21):21966-75), Aβ1-42 was obtained from rPeptide, Watkinsville, Ga., USA. Fibrils were prepared by aggregation of recombinant protein via constant agitation. In detail, 70 μM of alpha-synuclein mixed with 100 mM NaCl in 50 mM Tris, pH 7.0+0.02% NaN3 were incubated at 1,400 rpm, 37° C. for 96 h. 10 μM of tau46 were incubated with 0.03 mg/ml heparin in 50 mM Tris, pH=7.0 at 1,000 rpm, 37° C. for 72 h. Aβ1-42 was solved in 20 mM NaPi, pH=8.0+0.2 mM EDTA+0.02% NaN3 (Deeg A A, et al., Biochim. Biophys. Acta, 2015; 1850(9): 1884-90; Goedert M, et al. Nature, 1996; 383(6600): 550-3).
Sonicated αSYN (0.04 μM) or tau46 (0.4 μM) or Aβ1-42 (6 μM) fibrils diluted in PBS were incubated with decreasing concentrations of [^3H]-labeled compound (48 nM or 24 nM-[…]) in 50 mM Tris-base, 10% ethanol, 0.05% Tween20, pH 7.4. To determine non-specific binding, the respective unlabeled compound (400 nM) was added to a duplicate set of binding reactions.
Assay plates were incubated under agitation at 37° C. for 2 h, covered by plastic foil (Resealable tape, PerkinElmer, Waltham, Mass., USA). Prior to harvesting, a filter (Printed filtermat B, PerkinElmer, Waltham, Mass., USA) was incubated with 5 mg/mL polyethylenimine (PEI, Poly(ethyleneimine) solution, Sigma Aldrich Chemie GmbH, Taufkirchen, Germany) at 4° C. for 30 min. After incubation, bound and free ligands were separated by vacuum filtration using a harvester (Filtermate harvester, PerkinElmer, Waltham, Mass., USA). The filter was washed three times with buffer cooled to 4° C. and subsequently dried in the microwave oven for 2 min at medium power. Melt-on scintillator sheets (MeltiLex™ B/HS, PerkinElmer, Waltham, Mass., USA) were molten into the filter using a heating plate set to 120° C. After solidifying at room temperature, the filter was sealed in a plastic bag (Sample bag for MicroBeta®, PerkinElmer, Waltham, Mass., USA). Accumulation of tritium was counted in a liquid scintillation counter (Wallac MicroBeta® TriLux, 1450 LSC & Luminescence Counter, PerkinElmer, Waltham, Mass., USA) immediately. Radioactivity was plotted against the increasing tritium-labeled compound or cold compound concentrations. Data points were fitted using nonlinear regression analysis in GraphPad Prism (GraphPad Software, Inc., Version 7.03, La Jolla, Calif., USA).
The fibril-binding saturation assay provides KD values. This assay is performed with directly radioactively labeled compounds (e.g. ^3H labeling). The saturation binding assays were performed using as target structures fibrillar aggregates produced from recombinant human alpha-synuclein, Aβ1-42, and tau46, respectively.

[3] = tested on: H4 cells overexpressing alpha-synuclein hemi-Venus fusion constructs (V1S+SV2); assay: Cellular model of aggregated alpha-synuclein-dependent toxicity, V1S+SV2 H4 cells; type: cell-based; conditions: 10 μM compound, 100 μM FeCl3, 0.75% DMSO, 48 h; for inhibition at 10 µM: read-out: Change in fraction of condensed nuclei (rel. to DMSO control) [%]
Method: as §1, §2

[4] = fibril-binding saturation assay, summary statement, read-out: KD values, alpha-synuclein fibrils
[5] = saturation assay protocol 2a, [3H]-labeled compound, read-out: KD [nM] for aggregated alpha-synuclein

SMILES | Change in cell number (rel. to DMSO control) [%] [1] [%] | inhibition at 10 µM [1] [%] | Kd [2, 4] [nM] | Kd [2, 5] [nM] | Selectivity versus Abeta and tau46 fibrils [2] | Change in cell number (rel. to DMSO control) [%] [3] [%] | inhibition at 10 µM [3] [%]
CN(C)c1ccc(-c2cc(-c3ccnc(Br)c3)[nH]n2)cc1 [Compound 1, 4-[3-(4-dimethylamino-phenyl)-1H-pyrazol-5-yl]-2-bromopyridine] | −27.3 | 65.4 | < 10 | < 2 | good to excellent selectivity | −21.2 | 11.7
Fc1cc(-c2cc(-c3ccc4c(c3)OCO4)n[nH]2)ccn1 [Compound 12, 4-[3-(1,3-benzodioxol-5-yl)-1H-pyrazol-5-yl]-2-fluoropyridine] | −9.8 | -28.4 | < 10 | 7 | – | −22.2 | -24.9
CNc1ccc(-c2cc(-c3ccnc(Br)c3)[nH]n2)cc1 [Compound 2, 4-[5-(2-bromopyridin-4-yl)-1H-pyrazol-3-yl]-N-methylaniline] | −44.2 | 79 | < 10 | < 1 | good to excellent selectivity | −25.8 | 49.4
